Laboratory results from ChEMBL document CHEMBL1128258, “[[(Guaninylalkyl)phosphinico]methyl]phosphonic acids. Multisubstrate analogue inhibitors of human erythrocyte purine nucleoside phosphorylase” (J Med Chem, 1995).

Key:
[1] = biological target: T1, Purine nucleoside phosphorylase (Homo sapiens, UniProt P00491); assay: Inhibition of human erythrocyte purine nucleoside phosphorylase (PNPase) in the presence of zinc chloride
T1 sequence (P00491 whole entry): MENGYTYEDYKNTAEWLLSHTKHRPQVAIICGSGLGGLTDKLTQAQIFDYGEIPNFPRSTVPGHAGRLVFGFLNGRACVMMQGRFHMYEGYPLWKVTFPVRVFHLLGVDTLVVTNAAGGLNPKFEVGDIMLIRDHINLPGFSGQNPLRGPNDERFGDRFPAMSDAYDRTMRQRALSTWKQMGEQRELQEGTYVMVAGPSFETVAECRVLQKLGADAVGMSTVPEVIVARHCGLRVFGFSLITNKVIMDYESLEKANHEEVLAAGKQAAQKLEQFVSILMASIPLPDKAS

[2] = biological target: T1, Purine nucleoside phosphorylase; assay: Inhibition of human erythrocyte purine nucleoside phosphorylase (PNPase) in the presence of ethylenediaminetetraacetic acid (Na2 EDTA)

Row | Structure (SMILES) | Ki [1] [µM] | Ki [2] [µM]
1 | CCOP(=O)(O)CP(=O)(O)CCCCCn1cnc2c(O)nc(N)nc21 | 1.1 | 14
2 | Nc1nc(O)c2ncn(CCCCP(=O)(O)CP(=O)(O)O)c2n1 | 0.1 | 1.4
3 | O=c1[nH]c(=O)c2ncn(CCCCCP(=O)(O)CP(=O)(O)O)c2[nH]1 | 1.4 | 270
4 | Nc1nc(O)c2ncn(CCCCCCCP(=O)(O)CP(=O)(O)O)c2n1 | 0.01 | 1.1
5 | Nc1nc(O)c2ncn(CCCCCCP(=O)(O)CP(=O)(O)O)c2n1 | 0.0037 | 0.39
